Experimental findings from publication PMC9964140, “Exploration of Succinimide Derivative as a Multi-Target, Anti-Diabetic Agent: In Vitro and In Vivo Approaches” (Molecules, 2023) are described below.

The nature of one data set: Antioxidant (DPPH) test. To be noted: DPPH free radical scavenging. How it is done: For identifying free radicals and the scavenging potential of new organic compounds, Sigma Aldrich USA’s DPPH was employed. Methanol was employed as a solvent for preparing test samples of varying strengths of the examined substances. Two milliliters of the test sample’s variation strength were blended separately with two milliliters of the DPPH solution and 0.002% methanol. After being stored in the dark and at room temperature for 30 min, test tubes were examined using a UV spectrophotometer to measure the absorbance at 517 nm. As is customary, ascorbic acid was employed here, and the procedure was then repeated three times. Utilizing the formula below, the tested specimen’s scavenging activity was calculated: Scavenging activity % = (A − B)/A × 100. The letters “A” and “B” stand for the absorbance of the DPPH and the test sample, respectively. By plotting a graph of the scavenging effect of the tested compounds versus the concentration of the corresponding solution, IC50 values were determined.
(DPPH is a stable violet radical that fades when it is reduced.)

The next data set concerns the target T1, PTP1 B (Homo sapiens, UniProt P18031).
T1 sequence (P18031 1-435): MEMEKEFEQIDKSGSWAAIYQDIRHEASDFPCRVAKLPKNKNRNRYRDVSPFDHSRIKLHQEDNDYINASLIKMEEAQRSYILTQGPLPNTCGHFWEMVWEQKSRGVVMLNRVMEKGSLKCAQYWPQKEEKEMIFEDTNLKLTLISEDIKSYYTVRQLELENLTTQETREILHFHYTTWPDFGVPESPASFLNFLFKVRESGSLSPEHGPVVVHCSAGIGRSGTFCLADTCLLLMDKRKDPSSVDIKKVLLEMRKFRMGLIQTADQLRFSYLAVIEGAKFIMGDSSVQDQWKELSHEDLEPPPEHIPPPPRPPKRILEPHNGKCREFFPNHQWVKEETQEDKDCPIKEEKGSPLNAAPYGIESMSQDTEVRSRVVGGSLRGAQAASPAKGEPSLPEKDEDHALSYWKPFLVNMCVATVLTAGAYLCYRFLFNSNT
In words: Protein tyrosine phosphatase 1 B (PTP1 B) test. It is filed as biochemical. The settings on record: ± SEM; pH 7, 40 min at 27 °C.

In another data set the test system is mice. To be noted: mouse, in vivo. How it is done:
Prior to putting the drug through tests on lab animals, its acute toxicity was determined. Two groups of experimental mice, (1) the control group and (2) the test group, were used for this experiment. Each group consisted of five mice. It was conducted intraperitoneally with different concentrations of the chemical. The mice were then closely examined for three days in the animal home after the chemical was administered to check for death or any unfavorable reactions.

A further data set has as its target α-Glucosidase. The experiment in a line: Alpha-glucosidase test. The settings on record: ± SEM. The data set is classed as biochemical. How it is done: A concentration of 0.5 mg/11 mL distilled water and a substrate solution of glucopyranoside at 15 mg/10 mL distilled water concentration were added to […] of a phosphate buffer and kept at 37 °C for 20 min, respectively, to prepare the sample. To prepare the control, 1200 μL of the phosphate buffer was added to the test tube. Next, 400 μL of the substrate solution (glucopyranoside 15 mg/10 mL distilled water) and 800 µL of an enzyme solution were mixed. At last, the temperature was kept at 37 °C for 20 min.

The target in a further data set is DPP-4 (Homo sapiens, UniProt P27487). In words: Dipeptidyl peptidase-4 (DPP-4) fluorescence probe test. To be noted: ± SEM; read-out: IC50 DPP4. The data set is classed as biochemical. How it is done: Our compound’s inhibitory impact on the DPP-4 target was identified by a fluorescence probe in vitro assay. […] In a 96-well microplate reader, the test results were recorded. At first, various concentrations of the chemical were used to determine its action. Then, in accordance with the normal approach, a dose-dependent response was identified in order to estimate the IC50 value.
DPP-4, sequence (P27487 whole entry, species assumed): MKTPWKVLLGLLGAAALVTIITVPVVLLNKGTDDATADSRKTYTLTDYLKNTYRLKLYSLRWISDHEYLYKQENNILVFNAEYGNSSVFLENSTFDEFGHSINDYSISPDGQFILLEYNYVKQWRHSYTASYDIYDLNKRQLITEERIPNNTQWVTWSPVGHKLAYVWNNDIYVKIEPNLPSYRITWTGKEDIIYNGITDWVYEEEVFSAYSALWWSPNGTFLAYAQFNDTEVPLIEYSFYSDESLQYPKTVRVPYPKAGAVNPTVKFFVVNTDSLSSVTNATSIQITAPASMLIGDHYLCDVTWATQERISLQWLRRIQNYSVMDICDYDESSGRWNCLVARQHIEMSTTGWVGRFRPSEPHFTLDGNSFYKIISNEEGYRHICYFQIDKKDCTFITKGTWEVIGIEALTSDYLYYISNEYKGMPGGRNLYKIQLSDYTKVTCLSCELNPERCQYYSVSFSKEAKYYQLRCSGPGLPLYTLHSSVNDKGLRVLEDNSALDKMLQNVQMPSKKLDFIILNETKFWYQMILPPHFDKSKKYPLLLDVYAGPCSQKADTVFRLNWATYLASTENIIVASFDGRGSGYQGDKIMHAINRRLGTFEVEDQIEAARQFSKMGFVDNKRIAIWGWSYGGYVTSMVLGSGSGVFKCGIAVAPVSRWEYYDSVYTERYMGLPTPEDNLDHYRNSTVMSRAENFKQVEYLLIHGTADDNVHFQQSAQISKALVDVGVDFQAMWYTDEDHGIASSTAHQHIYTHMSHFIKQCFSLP

In another data set the target is α-Amylase. In words: Alpha-amylase test. It is filed as biochemical. The settings on record: ± SEM.
Data set [1] deals with STZ-induced diabetic mice. The experiment in a line: Body weight, insulin, lipid profile, serum markers and histopathology in STZ-induced diabetic mice. The data set is classed as in vivo. To be noted: for histopathology of liver, kidney and pancreas: H & E staining; for effect on body weight of diabetic mice: treated; for insulin levels: treated STZ-induced diabetic mice, untreated diabetic group 2.5 ± 0.15, normal control 13.5 ± 0.95. As for the experimental part:
(§1) The mice were placed into 4 groups, with 5 animals in each group having elevated blood glucose levels. Group I was the normal group, which had normal blood glucose levels and was given saline. Group II was treated with a Tween 80 solution; in this group, diabetic mice were kept. Glibenclamide was administered at a 500 μM/Kg dose to group III, which was the control group with diabetic mice. Group IV, the final group, received treatment with different concentrations of the produced substance. The mice were killed after three weeks (21 days) by cervical decapitation, and blood samples and organs were taken for H & E staining-based histological analysis and for bioassays.

The next data set concerns diabetic mice. The experiment in a line: In vivo anti-diabetic assay (blood glucose, 21 days). More on the design: species or system albino mice.
From the text: For in vivo anti-diabetic efficacy, albino mice having weight of 30 g were employed. The animals utilized in experiments were compliant with the 2008 Animal Bye-Laws of the Pharmacy Department at the University of Malakand in Pakistan (Scientific Procedure Issue-I). The animals were handled according to accepted practices and housed in an animal facility during the experimental procedures. The animals were put to death following the experiment in accordance with AVMA rules.
The mice were given 10% alloxan monohydrate at a dose of 150 mg/kg body weight through IP in order to induce diabetes. The control group received a normal saline IP during this trial. Following the administration of alloxan, the animals’ blood glucose levels were checked using a glucometer. According to the protocols, in the in vivo study, mice with elevated blood sugar concentrations were also utilized.
as §1

Setting [2] is: diabetic mice, compared to diabetic mice not given the medication.

Experimental for PTP1 B: It is performed with a buffer solution of 3,3-dimethyl glutarate at a pH of 7. Additionally, a PTP1 B 10 mM solution, p-NO2-phenol phosphate of 1 mM, and numerous additional concentrations of the substance were made. As a result, the mixtures were incubated for 40 min at 27 °C. Then, measurements of the absorbances were conducted at 405 nm after the designated 40 min.
Experimental for α-Amylase: In order to evaluate the alpha-amylase test, standardized reporting protocols were followed [35]. In order to combine the enzyme and the phosphate buffer, test samples of varying strengths were added to the enzymatic solution. Incubation of the sample was followed by admixing of starch to both the control and test solutions and a dinitro salicylic acid solution. The sample combination was then maintained in a boiling water bath for a short period of time, and a microplate reader was used to measure the absorbance at 656 nm.
The formula below was used to calculate the α-amylase enzyme’s percentage inhibition capability: Percent Inhibition=Absorbance of Control − Absorbance of Sample ×100/Absorbance of Control

For orientation: IC50 means the concentration that inhibits the measured activity by half. Regarding `O=C1O[C@H]([C@@H](O)CO)C(O)=C1O` [Ascorbic acid, reference compound], half-maximal inhibition in the data set “Antioxidant (DPPH) test” (IC50) required 1.44 ± 0.2 µM.

On to `COc1cc(CC(C)=O)ccc1OC1CC(=O)N(Cc2ccccc2)C1=O` (stereo not shown) [Compound 3, 1-benzyl-3-(2-methoxy-4-(2-oxopropyl)phenoxy)pyrrolidine-2,5-dione], for which it took 3.31 ± 0.65 µM to reach half-maximal inhibition in the data set “Antioxidant (DPPH) test” (IC50). Moreover, the IC50 on PTP1 B amounted to 13.2 ± 0.11 µM. In addition, the “acute toxicity: allergic reaction” value with mice was “no sign of an allergic reaction”. In addition, the acute toxicity outcome with mice (ip) was “safe and had no adverse effects”. In addition, the IC50 on α-Glucosidase turned out to be 7.2 ± 0.92 µM. Further, on DPP-4, the IC50 turned out to be 0.07 ± 0.03 µM. Moreover, the 50% inhibitory concentration (IC50) on α-Amylase is 15.4 ± 0.15 µM. Moreover, the body weight gain in data set [1] (STZ + compound 3 group (Tg-5), final vs initial day, diabetic group lost 1.9 ± 0.05 g) was found to be 1.55 g. In data set [1] (STZ-induced diabetic mice), the BUN entry was “decreased the excess peak”, the HDL levels entry was “raising HDL levels”, the LDL levels result was “dramatically reduced” and the creatinine result was “decreased the excess peak”. In addition, in data set [1] (STZ-induced diabetic mice), the “serum ALP” value is “suppressed the enhanced rise”; the “serum ALT” value is “suppressed the enhanced rise”; the “serum AST” value is given as “suppressed the enhanced rise”; the “histopathology of liver, kidney and pancreas” value is “healed from the histological injuries”. Further, the “effect on body weight of diabetic mice” value in data set [1] (STZ-induced diabetic mice) was “recovered their bodyweight”. For the same compound, in data set [1] (setting [2]), the “reduction of total cholesterol” value is 34.9% and the “reduction of total triglycerides” value is 35.20%. Further, the “effect on body weight of non-diabetic mice” value in data set [1] (non-diabetic group) is “did not affect the body weights”. The compound further returned an insulin levels in data set [1] of 10.9 ± 0.25 ng/mL. In addition, in the data set on diabetic mice (15.625 µM/kg IP), the “Blood Glucose Level 0 Day” value came out at 22.7 mmole per Liter, the “Blood Glucose Level 7th Day” value is recorded as 19.7 mmole per Liter, the “Blood Glucose Level 14th Day” value turned out to be 17.6 mmole per Liter and the “Blood Glucose Level 21st Day” value was found to be 15.1 mmole per Liter. In the data set with diabetic mice (31.25 µM/kg IP), the “Blood Glucose Level 0 Day” value is recorded as 22.9 mmole per Liter, the “Blood Glucose Level 7th Day” value is recorded as 19.1 mmole per Liter, the “Blood Glucose Level 14th Day” value was 17.1 mmole per Liter and the “Blood Glucose Level 21st Day” value stood at 13.6 mmole per Liter. In the data set on diabetic mice (62.5 µM/kg IP), the “Blood Glucose Level 0 Day” value is 23.2 mmole per Liter, the “Blood Glucose Level 7th Day” value worked out at 19.3 mmole per Liter, the “Blood Glucose Level 14th Day” value amounted to 16.7 mmole per Liter and the “Blood Glucose Level 21st Day” value was found to be 13.1 mmole per Liter. In the data set on diabetic mice (125 µM/kg IP), the “Blood Glucose Level 0 Day” value was found to be 22.6 mmole per Liter, the “Blood Glucose Level 7th Day” value came out at 18.9 mmole per Liter, the “Blood Glucose Level 14th Day” value was determined as 16.2 mmole per Liter and the “Blood Glucose Level 21st Day” value is on record as 12.8 mmole per Liter. In the data set with diabetic mice (250 µM/kg IP), the “Blood Glucose Level 0 Day” value is reported as 22.4 mmole per Liter, the “Blood Glucose Level 7th Day” value came out at 18.4 mmole per Liter, the “Blood Glucose Level 14th Day” value came out at 15.7 mmole per Liter and the “Blood Glucose Level 21st Day” value was 12.2 mmole per Liter.

Turning to `COc1ccc(Cl)cc1C(=O)NCCc1ccc(S(=O)(=O)NC(=O)NC2CCCCC2)cc1` [Glibenclamide, reference compound], in the data set with diabetic mice (250 µM/kg IP), the “Blood Glucose Level 0 Day” value amounted to 21.5 mmole per Liter, the “Blood Glucose Level 7th Day” value was 17.7 mmole per Liter, the “Blood Glucose Level 14th Day” value was 14.5 mmole per Liter and the “Blood Glucose Level 21st Day” value was 11.1 mmole per Liter.

On to `CN(C)C(=N)N=C(N)N` [Metformin, reference compound], for which, in data set [1] (STZ-induced diabetic mice), the “serum ALP” value was “suppressed the enhanced rise”; the “serum ALT” value is listed as “suppressed the enhanced rise”; the “serum AST” value is “suppressed the enhanced rise”; the “histopathology of liver, kidney and pancreas” value is “healed from the histological injuries”. For the same compound, the “effect on body weight of diabetic mice” value in data set [1] (STZ-induced diabetic mice) is reported as “recovered their bodyweight”. In data set [1], this compound displayed an insulin levels of 12.2 ± 0.29 ng/mL.
